Assay results as given in US10221163B2 (priority 2015, dated 2019).
Where a name gives a salt, the structure may show the parent alone. Read-outs that look alike come from different tables or passages of the source.

Experiments:
[1] = system: Klebsiella pneumoniae expressing VIM-1 (IHMA599644); type: cell-based; settings: for Klebsiella pneumoniae MITC95: VIM-1 strain IHMA599644, with imipenem 1 μg/ml, 95% inhibition of growth
In short: (§1)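 Growth by absorbance after 22–24 h at 35°C defined the read-out, with imipenem fixed at 1 μg/ml alongside compound. Inocula came from overnight blood-agar colonies at 35°C, resuspended in saline and diluted 1:100 in 1.1×CAMHB.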

[2] = system: Serratia marcescens expressing IMP-1 (CL5741); type: cell-based; settings: for Serratia marcescens MITC95: IMP-1 strain CL5741, with imipenem 1 μg/ml, 95% inhibition of growth
In short: as §1

[3] = system: Escherichia coli expressing NDM-1 (CLB30005, CLB30016); type: cell-based; settings: with imipenem 1 μg/ml; for Escherichia coli MITC95: NDM-1 strain, 95% inhibition of growth
In short: as §1

[4] = molecular target: NDM-1 (Klebsiella pneumoniae, UniProt C7C422); assay: biochemical; type: biochemical; settings: fluorescence assay, CCF2-FA substrate, 1 pM enzyme, 2 hours at 25° C., read-out: NDM-1 IC50
Chain of NDM-1 (C7C422 whole entry, looked up, species assumed): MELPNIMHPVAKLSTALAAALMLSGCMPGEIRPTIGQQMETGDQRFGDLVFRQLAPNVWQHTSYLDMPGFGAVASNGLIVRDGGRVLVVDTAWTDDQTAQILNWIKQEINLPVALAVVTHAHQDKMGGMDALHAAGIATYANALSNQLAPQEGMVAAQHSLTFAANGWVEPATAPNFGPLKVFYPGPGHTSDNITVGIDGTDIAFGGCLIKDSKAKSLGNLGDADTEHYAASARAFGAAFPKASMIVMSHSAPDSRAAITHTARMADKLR
In short: (§2)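 Two-hour, 25° C incubation of enzyme with inhibitor and CCF2-FA (7-hydroxycoumarin–cephalosporin–fluorescein). Fluorescence read-out; IC50 via 4-parameter fit.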

[5] = molecular target: IMP-1 (Serratia marcescens, UniProt P52699); assay: biochemical; type: biochemical; settings: fluorescence assay, CCF2-FA substrate, 2 pM enzyme, 2 hours at 25° C., read-out: IMP-1 IC50
Chain of IMP-1 (P52699 whole entry, looked up, species assumed): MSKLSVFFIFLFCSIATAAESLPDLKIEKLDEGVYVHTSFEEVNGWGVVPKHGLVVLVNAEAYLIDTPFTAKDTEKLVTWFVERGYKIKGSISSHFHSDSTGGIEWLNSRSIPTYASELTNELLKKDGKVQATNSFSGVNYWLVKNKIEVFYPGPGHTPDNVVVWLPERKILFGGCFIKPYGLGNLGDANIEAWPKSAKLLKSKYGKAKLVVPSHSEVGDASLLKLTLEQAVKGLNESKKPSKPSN
In short: as §2

[6] = system: Pseudomonas aeruginosa MB9798 vs MB9799
In short: (§3)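 PAO1 pair, broth microdilution; fixed β-lactam (imipenem/ceftazidime) at ~CLSI breakpoint + fixed class A/C BLI for AmpC; serial MBLi titration; endpoint = MBLi conc. restoring susceptibility; MB9798:MB9799 ratio = efflux liability.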

[7] = system: Pseudomonas aeruginosa efflux− (MB9799), IMP-1; type: cell-based; settings: C, D serine β-lactamase inhibitor closely related to relebactam; for P. aeruginosa expressing IMP-1, efflux − (MB9799) MITC95: concentration restoring susceptibility to imipenem at 2 μg/mL in the presence of a class A; for Concentration of metallo-β-lactamase inhibitor which restores susceptibility of efflux − (MB9799) strain to imipenem: imipenem at 2 μg/mL, in the presence of a class A
In short: as §3

[8] = molecular target: VIM-1 (Pseudomonas aeruginosa (strain ATCC 15692 / DSM 22644 / CIP 104116 / JCM 14847 / LMG 12228 / 1C / PRS 101 / PAO1), UniProt A0A0F7KYQ8); assay: biochemical; settings: CCF2-FA substrate, 30 pM enzyme, 2 hours at 25° C.
In short: as §2

[9] = system: Pseudomonas aeruginosa efflux+ (MB9798), IMP-1; type: cell-based; design: Concentration of metallo-β-lactamase inhibitor which restores susceptibility of efflux + (MB9798) strain to imipenem: unit not given here; settings: C, D serine β-lactamase inhibitor closely related to relebactam; for P. aeruginosa expressing IMP-1, efflux + (MB9798) MITC95: concentration restoring susceptibility to imipenem at 2 μg/mL in the presence of a class A; for Concentration of metallo-β-lactamase inhibitor which restores susceptibility of efflux + (MB9798) strain to imipenem: imipenem at 2 μg/mL, in the presence of a class A
In short: as §3

[10] = with imipenem 1 μg/ml, 95% inhibition of bacterial growth
[11] = ratio MITC95 PA_9798/MITC95 PA_9799
[12] = fold difference between efflux+ (MB9798) and efflux− (MB9799) strains, imipenem at 2 μg/mL
[13] = fluorescence assay, read-out: VIM-1 IC50

SMILES	IC50 [4] [nM]	IC50 [5] [nM]	Efflux ratio [6, 11]	P. aeruginosa expressing IMP-1, efflux − (MB9799) MITC95 [7] [µM]	IC50 ([8]; VIM-1 IC50, fluorescence assay) [nM]	P. aeruginosa expressing IMP-1, efflux + (MB9798) MITC95 [9] [µM]	Klebsiella pneumoniae MITC95 [1] [µM]	Serratia marcescens MITC95 [2] [µM]	Escherichia coli MITC95 [3] [µM]	Efflux ratio [6, 12]	Concentration of metallo-β-lactamase inhibitor which restores susceptibility of efflux − (MB9799) strain to imipenem [7]	IC50 [8, 13] [nM]	Concentration of metallo-β-lactamase inhibitor which restores susceptibility of efflux + (MB9798) strain to imipenem [9]	further results
Nc1nc2c(-c3ccc(S(=O)(=O)NCCC4CNC4)c(S(N)(=O)=O)c3-c3nnn[nH]3)cccc2s1 [Example 30, 4-(2-amino-1,3-benzothiazol-4-yl)-N1-(2-azetidin-3-ylethyl)-3-(1H-tetrazol-5-yl)benzene-1,2-disulfonamide]	0.0686	0.369	1.00	1.563	0.308	1.563								Klebsiella pneumoniae expressing VIM-1 (IHMA599644) MITC95 [1, 10]: 6.25 µM; Serratia marcescens expressing IMP-1 (CL5741) MITC95 [2, 10]: 3.125 µM; Escherichia coli expressing NDM-1 (CLB30016) MITC95 ([3]; 95% inhibition of bacterial growth): 6.25 µM
NCc1nc2cc(-c3ccc(S(=O)(=O)NC[C@H](O)CN)c(S(N)(=O)=O)c3-c3nn[nH]n3)ccc2s1 [Example 463, (R)—N1-(3-amino-2-hydroxypropyl)-4-(2-(aminomethyl)benzo[d]thiazol-5-yl)-3-(2H-tetrazol-5-yl)benzene-1,2-disulfonamide]	0.145	0.325					1.563	0.7813	0.7813	1.00	0.7813	0.091	0.7813	
NCC1(NS(=O)(=O)c2ccc(-c3ccc(N)nc3)c(-c3nn[nH]n3)c2S(N)(=O)=O)CCNC1 (stereo in doubt) [Example 486, (R)-N1-(3-(aminomethyl)pyrrolidin-3-yl)-4-(6-aminopyridin-3-yl)-3-(2H-tetrazol-5-yl)benzene-1,2-disulfonamide dihydrochloride]					0.321		1.563	0.7813					1.563	Escherichia coli MITC95 ([3]; dihydrochloride): 0.7813 µM; IC50 ([4]; dihydrochloride): 0.176 nM; IC50 ([5]; dihydrochloride): 0.422 nM; Efflux ratio ([6]; fold difference between efflux+ (MB9798) and efflux− (MB9799) strains, imipenem at 2 μg/mL, dihydrochloride): 2.00; Concentration of metallo-β-lactamase inhibitor which restores susceptibility of efflux − (MB9799) strain to imipenem ([7]; dihydrochloride): 0.7813
NCCNS(=O)(=O)c1ccc(-c2cccc(NC(=O)[C@@H](N)CN)c2)c(-c2nn[nH]n2)c1S(N)(=O)=O [Example 453, (S)-2,3-Diamino-N-(4′-(N-(2-aminoethyl)sulfamoyl)-3′-sulfamoyl-2′-(2H-tetrazol-5-yl)-[1,1′-biphenyl]-3-yl)propanamide]	0.87	3.52					3.125	3.125	1.563	2.00	1.563	0.244	3.125	
NC(=O)c1nc2c(-c3ccc(S(=O)(=O)N[C@@H]4CCNC4)c(S(N)(=O)=O)c3-c3nn[nH]n3)cccc2[nH]1 [Example 271, (R)-4-(4-(N-(pyrrolidin-3-yl)sulfamoyl)-3-sulfamoyl-2-(2H-tetrazol-5-yl)phenyl)-1H-benzo[d]imidazole-2-carboxamide]	0.0196	0.271	0.50	1.563		0.7813	3.125	0.7813	1.563			0.0989		
